The NIST ThermoML archive (doi:10.1021/je060271a)
± gives the expanded uncertainty stated by the source.

Settings: 343.15 K, Liquid, Vibrating tube method

CCCCC(=O)OCC(COC(=O)CCCC)(COC(=O)CCCC)COC(=O)CCCC [pentaerythritol tetrapentanoate]
mass density (5413.1 kPa): 982.8 ± 1.2 kg/m3
mass density (5435 kPa): 982.7 ± 1.2 kg/m3
mass density (5461.9 kPa): 982.8 ± 1.2 kg/m3
mass density (5505.6 kPa): 982.8 ± 1.2 kg/m3
mass density (5528.3 kPa): 982.7 ± 1.2 kg/m3
mass density (5555.3 kPa): 982.9 ± 1.2 kg/m3
mass density (5578.3 kPa): 982.9 ± 1.2 kg/m3
mass density (5601.1 kPa): 982.8 ± 1.2 kg/m3
mass density (5652.8 kPa): 983 ± 1.2 kg/m3
mass density (6775.7 kPa): 983.7 ± 1.2 kg/m3
mass density (6868.5 kPa): 983.8 ± 1.2 kg/m3
mass density (7157.9 kPa): 984.1 ± 1.2 kg/m3
mass density (7189.4 kPa): 984.1 ± 1.2 kg/m3
mass density (7222 kPa): 984.1 ± 1.2 kg/m3
mass density (7362.2 kPa): 984.3 ± 1.2 kg/m3
mass density (7507.8 kPa): 984.3 ± 1.2 kg/m3
mass density (7543.3 kPa): 984.3 ± 1.2 kg/m3
mass density (7586.1 kPa): 984.4 ± 1.2 kg/m3
mass density (7622 kPa): 984.5 ± 1.2 kg/m3
mass density (7658.5 kPa): 984.4 ± 1.2 kg/m3
mass density (7695.9 kPa): 984.5 ± 1.2 kg/m3
mass density (7740.8 kPa): 984.5 ± 1.2 kg/m3
mass density (7779.3 kPa): 984.5 ± 1.2 kg/m3
mass density (7819 kPa): 984.5 ± 1.2 kg/m3
mass density (7858.9 kPa): 984.6 ± 1.2 kg/m3
mass density (7901.3 kPa): 984.7 ± 1.2 kg/m3
mass density (7933.4 kPa): 984.7 ± 1.2 kg/m3
mass density (7965.2 kPa): 984.7 ± 1.2 kg/m3
mass density (7997.4 kPa): 984.8 ± 1.2 kg/m3
mass density (8035.4 kPa): 984.7 ± 1.2 kg/m3
mass density (8067.7 kPa): 984.8 ± 1.2 kg/m3
mass density (8100.4 kPa): 984.6 ± 1.2 kg/m3
mass density (8139.1 kPa): 984.8 ± 1.2 kg/m3
mass density (8172.2 kPa): 984.9 ± 1.2 kg/m3
mass density (8205.9 kPa): 984.8 ± 1.2 kg/m3
mass density (8240 kPa): 984.8 ± 1.2 kg/m3
mass density (8280.4 kPa): 985 ± 1.2 kg/m3
mass density (8314.6 kPa): 984.8 ± 1.2 kg/m3
mass density (8349.6 kPa): 985 ± 1.2 kg/m3
mass density (8390.6 kPa): 985.1 ± 1.2 kg/m3
mass density (8425.6 kPa): 985 ± 1.2 kg/m3
mass density (8461.4 kPa): 985 ± 1.2 kg/m3
mass density (8504.7 kPa): 985.1 ± 1.2 kg/m3
mass density (8540.9 kPa): 985 ± 1.2 kg/m3
mass density (8577.6 kPa): 985.2 ± 1.2 kg/m3
mass density (8620.4 kPa): 985.2 ± 1.2 kg/m3
mass density (8653.7 kPa): 985.2 ± 1.2 kg/m3
mass density (8686.4 kPa): 985.2 ± 1.2 kg/m3
mass density (8725.9 kPa): 985.3 ± 1.2 kg/m3
mass density (8759 kPa): 985.2 ± 1.2 kg/m3
mass density (8793.5 kPa): 985.3 ± 1.2 kg/m3
mass density (8834.4 kPa): 985.3 ± 1.2 kg/m3
mass density (8868.3 kPa): 985.2 ± 1.2 kg/m3
mass density (8902.8 kPa): 985.3 ± 1.2 kg/m3
mass density (8937.8 kPa): 985.4 ± 1.2 kg/m3
mass density (8979.2 kPa): 985.4 ± 1.2 kg/m3
mass density (9014.2 kPa): 985.4 ± 1.2 kg/m3
mass density (9057.6 kPa): 985.5 ± 1.2 kg/m3
mass density (9093 kPa): 985.5 ± 1.2 kg/m3
mass density (9128.9 kPa): 985.5 ± 1.2 kg/m3
mass density (9165.6 kPa): 985.6 ± 1.2 kg/m3
mass density (9210.7 kPa): 985.6 ± 1.2 kg/m3
mass density (9247.8 kPa): 985.6 ± 1.2 kg/m3
mass density (9284.8 kPa): 985.6 ± 1.2 kg/m3
mass density (9330.2 kPa): 985.6 ± 1.2 kg/m3
mass density (9369.1 kPa): 985.6 ± 1.2 kg/m3
mass density (9408.2 kPa): 985.8 ± 1.2 kg/m3
mass density (9447.9 kPa): 985.6 ± 1.2 kg/m3
mass density (9495.3 kPa): 985.9 ± 1.2 kg/m3
mass density (9536.5 kPa): 985.8 ± 1.2 kg/m3
mass density (9579.2 kPa): 985.9 ± 1.2 kg/m3
mass density (9627.1 kPa): 985.8 ± 1.2 kg/m3
mass density (9659.1 kPa): 985.9 ± 1.2 kg/m3
mass density (9689.8 kPa): 986 ± 1.2 kg/m3
mass density (9720.2 kPa): 986 ± 1.2 kg/m3
mass density (9749.7 kPa): 986 ± 1.2 kg/m3
mass density (9785.3 kPa): 986 ± 1.2 kg/m3
mass density (9815.5 kPa): 986.1 ± 1.2 kg/m3
mass density (9845.4 kPa): 986.1 ± 1.2 kg/m3
mass density (9881.3 kPa): 986.2 ± 1.2 kg/m3
mass density (9911.4 kPa): 986.2 ± 1.2 kg/m3
mass density (9942.4 kPa): 986.2 ± 1.2 kg/m3
mass density (9979.5 kPa): 986.2 ± 1.2 kg/m3
mass density (10011 kPa): 986.2 ± 1.2 kg/m3
mass density (10043 kPa): 986.1 ± 1.2 kg/m3
mass density (10082 kPa): 986.4 ± 1.2 kg/m3
mass density (10117 kPa): 986.1 ± 1.2 kg/m3
mass density (10149 kPa): 986.3 ± 1.2 kg/m3
mass density (10181 kPa): 986.3 ± 1.2 kg/m3
mass density (10213 kPa): 986.3 ± 1.2 kg/m3
mass density (10252 kPa): 986.3 ± 1.2 kg/m3
mass density (10284 kPa): 986.3 ± 1.2 kg/m3
mass density (10318 kPa): 986.4 ± 1.2 kg/m3
mass density (10358 kPa): 986.4 ± 1.2 kg/m3
mass density (10391 kPa): 986.4 ± 1.2 kg/m3
mass density (10425 kPa): 986.5 ± 1.2 kg/m3
mass density (10465 kPa): 986.6 ± 1.2 kg/m3
mass density (10500 kPa): 986.5 ± 1.2 kg/m3
mass density (10535 kPa): 986.6 ± 1.2 kg/m3
mass density (10577 kPa): 986.5 ± 1.2 kg/m3
mass density (10612 kPa): 986.6 ± 1.2 kg/m3
mass density (10647 kPa): 986.6 ± 1.2 kg/m3
mass density (10690 kPa): 986.5 ± 1.2 kg/m3
mass density (10726 kPa): 986.8 ± 1.2 kg/m3
mass density (10762 kPa): 986.7 ± 1.2 kg/m3
mass density (10806 kPa): 986.8 ± 1.2 kg/m3
mass density (10842 kPa): 986.8 ± 1.2 kg/m3
mass density (10879 kPa): 986.8 ± 1.2 kg/m3
mass density (10923 kPa): 986.9 ± 1.2 kg/m3
mass density (10960 kPa): 986.9 ± 1.2 kg/m3
mass density (10999 kPa): 986.9 ± 1.2 kg/m3
mass density (11045 kPa): 986.9 ± 1.2 kg/m3
mass density (11084 kPa): 987 ± 1.2 kg/m3
mass density (11122 kPa): 987.1 ± 1.2 kg/m3
mass density (11162 kPa): 986.9 ± 1.2 kg/m3
mass density (11209 kPa): 987 ± 1.2 kg/m3
mass density (11248 kPa): 987.2 ± 1.2 kg/m3
mass density (11296 kPa): 987.1 ± 1.2 kg/m3
mass density (11336 kPa): 987.2 ± 1.2 kg/m3
mass density (11377 kPa): 987.2 ± 1.2 kg/m3
mass density (11417 kPa): 987.2 ± 1.2 kg/m3
mass density (11467 kPa): 987.3 ± 1.2 kg/m3
mass density (11508 kPa): 987.3 ± 1.2 kg/m3
mass density (11551 kPa): 987.4 ± 1.2 kg/m3
mass density (11602 kPa): 987.3 ± 1.2 kg/m3
mass density (11645 kPa): 987.3 ± 1.2 kg/m3
mass density (11689 kPa): 987.4 ± 1.2 kg/m3
mass density (11740 kPa): 987.4 ± 1.2 kg/m3
mass density (11784 kPa): 987.5 ± 1.2 kg/m3
mass density (11828 kPa): 987.4 ± 1.2 kg/m3
mass density (11881 kPa): 987.6 ± 1.2 kg/m3
mass density (11926 kPa): 987.6 ± 1.2 kg/m3
mass density (11972 kPa): 987.7 ± 1.2 kg/m3
mass density (12028 kPa): 987.6 ± 1.2 kg/m3
mass density (12076 kPa): 987.7 ± 1.2 kg/m3
mass density (12126 kPa): 987.7 ± 1.2 kg/m3
mass density (12187 kPa): 987.8 ± 1.2 kg/m3
mass density (12237 kPa): 987.9 ± 1.2 kg/m3
mass density (12270 kPa): 988 ± 1.2 kg/m3
mass density (12298 kPa): 987.8 ± 1.2 kg/m3
mass density (12322 kPa): 987.9 ± 1.2 kg/m3
mass density (12346 kPa): 987.8 ± 1.2 kg/m3
mass density (12374 kPa): 988 ± 1.2 kg/m3
mass density (12398 kPa): 987.9 ± 1.2 kg/m3
mass density (12423 kPa): 988 ± 1.2 kg/m3
mass density (12452 kPa): 987.9 ± 1.2 kg/m3
mass density (12476 kPa): 988.1 ± 1.2 kg/m3
mass density (12501 kPa): 988.1 ± 1.2 kg/m3
mass density (12530 kPa): 988 ± 1.2 kg/m3
mass density (12555 kPa): 988 ± 1.2 kg/m3
mass density (12580 kPa): 988 ± 1.2 kg/m3
mass density (12610 kPa): 988 ± 1.2 kg/m3
mass density (12636 kPa): 988 ± 1.2 kg/m3
mass density (12660 kPa): 988.1 ± 1.2 kg/m3
mass density (12691 kPa): 988.1 ± 1.2 kg/m3
mass density (12717 kPa): 988.2 ± 1.2 kg/m3
mass density (12742 kPa): 988.1 ± 1.2 kg/m3
mass density (12773 kPa): 988.2 ± 1.2 kg/m3
mass density (12799 kPa): 988.2 ± 1.2 kg/m3
mass density (12824 kPa): 988.3 ± 1.2 kg/m3
mass density (12856 kPa): 988.3 ± 1.2 kg/m3
